Test results published in paper PMC11512107, “Structural and biochemical analysis of ligand binding in yeast Niemann–Pick type C1–related protein” (Life Science Alliance, 2024).
Several values for one entry are separate records, joined by “and”; a condition that tells them apart may be missing. Equal values may be shown once. Entries after “also recorded” stand apart in the source; their conditions may differ.

Experiments:
NTD of NCR1 [1] = molecular target: T1, NTD of NCR1 (Saccharomyces cerevisiae, UniProt Q12200); assay: In vitro liposome crosslinking assay of pac-lipids with the NTD; assay type: binding; details: liposomes with 1.5 mol% pac-lipid (1 μM), 1.5 μM NTD, average ratio
T1 construct: residues 1–249, UniProt: Q12200; thrombin cleavage site (C); deca-histidine tag (C, cleaved yes); made in house; host or cells: Saccharomyces cerevisiae strain DSY-5
From the text: In a parallel approach, the substrate scope of the NTD and NPC2 was probed with photo-activatable and clickable (pac) lipids. Pac-lipids contain small chemical modifications for click chemistry reactions, with fluorophores such as AF647 (a structural analog of Alexa Fluor 647), and for UV-activated photo-crosslinking, respectively ([45]). In contrast to NBD-tagged lipids delivered in solution, pac-lipids such as pac-cholesterol (pacChol), pac-phosphatidylcholine (pacPC), pac-sphingosine (pacSph), and pac-ceramide (pacCer) were reconstituted in liposomal membranes (Fig 5A and B). As expected, the delipidated NTD crosslinks with pacChol (average +UV/−UV ratio = 2.11). Crosslinking of the NTD with pacSph (+UV/−UV = 1.73) and, to a lesser extent, with pacCer and pacPC (+UV/−UV = 1.40 and 1.12), respectively, was also detected (Fig 5C and D).
Lipids from stock vials were dissolved in chloroform and mixed at the desired molar ratio. […]
Extruded liposomes were diluted in PBS until a final lipid concentration of 60 μM, including 1 μM pac-lipid. […] Data were evaluated by subtracting background fluorescence, followed by comparing the AF647 signal between crosslinked and non-crosslinked samples, normalized to protein loading based on Coomassie staining. […] Statistics were calculated with the Mann–Whitney U test.

NPC2 = molecular target: T2, NPC2 (Saccharomyces cerevisiae, UniProt Q12408); assay: In vitro liposome crosslinking assay of pac-lipids with NPC2; assay type: binding
T2 construct: residues 1–173, UniProt: Q12408; thrombin cleavage site (C); deca-histidine tag (C, cleaved yes); made in house; host or cells: Saccharomyces cerevisiae strain DSY-5
T2 sequence (Q12408 22-173): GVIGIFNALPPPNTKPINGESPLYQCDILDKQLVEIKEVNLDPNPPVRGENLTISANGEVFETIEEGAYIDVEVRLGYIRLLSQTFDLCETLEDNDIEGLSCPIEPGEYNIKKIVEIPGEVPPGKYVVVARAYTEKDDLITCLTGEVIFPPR
Method: To compare with the interaction profile of the NTD, crosslinking assays were also performed with purified, delipidated NPC2 (Fig S4A and B). […] NPC2 crosslinks well with all tested pac-lipids but, as for the NTD, most strongly with pacChol (+UV/−UV ratio = 1.91). Robust and consistent crosslinking with pacSph (+UV/−UV ratio = 1.64), pacCer (+UV/−UV = 1.67), and pacPC (+UV/−UV = 1.63) were observed. The crosslinking efficiency for cholesterol and sphingosine analogs was higher for the NTD, whereas crosslinking with ceramide and PC analogs seemed stronger with NPC2.
Lipids from stock vials were dissolved in chloroform and mixed at the desired molar ratio. For in vitro crosslinking, most liposomes consisted of 88.5 mol% DOPC as carrier lipid, 10 mol% DOPS, and 1.5 mol% respective pac-lipid. The pac-lipids were incorporated into liposomes at low concentrations (1.5 mol%) to ensure homogenous distribution and avoid micelle formation. The solvent was evaporated in a rotary evaporator (Hei-VAP Core, Heidolph) for 30 min at 42°C at 150 rpm to create a thin lipid film. Lipid films were hydrated with filtered and degassed PBS (137 mM NaCl, 2.7 mM KCl, 10 mM Na2HPO4, 1.8 mM KH2PO4, pH 7.4). Solutions of hydrated lipids (with a total lipid concentration of 2 mM) were subjected to five freeze–thaw cycles in liquid nitrogen and warm water (42°C) to facilitate breakup of large structures and support formation of smaller multilamellar vesicles. Lipid solutions were stored at −20°C. Before use, liposomes were extruded by passing 20x through a 100-nm pore size polycarbonate filter (Nuclepore; Whatman) using a hand extruder (Avanti Polar Lipids). Extruded liposomes were stored at 4°C, protected from light, and used within 1–2 d.
Extruded liposomes were diluted in PBS until a final lipid concentration of 60 μM, including 1 μM pac-lipid. Purified proteins were added until a final concentration of 1.5 μM in a reaction volume of 100 μl. Protein–liposome mixtures were incubated in 0.5-ml Eppendorf tubes for 30 min at 37°C at 400 rpm (Comfort thermomixer, Eppendorf), then crosslinked (or not) by exposure to 365-nm UV light for 15 min at 4°C using a 100-W mercury lamp (Blak-Ray B-100AP). After crosslinking, the click reaction was performed by adding 0.7 μl of freshly prepared click mix into the sample tubes. The final concentrations of click reagents in sample tubes were 80 μM CuSO4 (Merck), 3 μM TBTA (Merck), 3 μM AF647-picolyl azide (Jena Bioscience), and 80 μM ascorbic acid (Merck). Fresh stock of ascorbic acid solution in water was prepared every time and added to the click mix immediately before starting the click reaction. Click reactions were allowed to proceed for 2 h at 37°C at 400 rpm with the thermomixer. Then, samples were concentrated in a vacuum evaporator for 30 min set to 30°C and supplemented with 4x Lämmli buffer (250 mM Tris, pH 6.8, 9.2% SDS, 40% glycerol, 0.2% bromophenol blue, 100 mM DTT). Samples were boiled for 5 min at 95°C, and clicked protein–lipid complexes were resolved by SDS–PAGE. After extensive destaining in a destain solution (65% water, 25% isopropanol, and 10% acetic acid), the AF647 (a structural analog of Alexa Fluor 647) and Coomassie images were acquired using the LI-COR Odyssey imaging system. Data were evaluated by subtracting background fluorescence, followed by comparing the AF647 signal between crosslinked and non-crosslinked samples, normalized to protein loading based on Coomassie staining. The resulting values are described as +UV/−UV ratios. Statistics were calculated with the Mann–Whitney U test.

NPC2 to the NTD = molecular target: T3, NPC2 to the NTD (Saccharomyces cerevisiae, UniProt Q12200); assay: In vitro pac-lipid transfer assay from NPC2 to the NTD; assay type: biochemical; details: His-tagged NPC2 preloaded with soluble pac-lipid; GFP baseline, STARD3 negative control
T3 construct: residues 1–249, UniProt: Q12200; residues 1–173, UniProt: Q12408; deca-histidine tag (C, cleaved yes); made in house; host or cells: Saccharomyces cerevisiae strain DSY-5
From the text: The consistent interaction of sphingosine with both the NTD and NPC2 observed in this study inspired us to examine whether the transfer of pacSph between the two proteins could be reconstituted in vitro. To this end, a protein-to-protein sphingosine transfer assay using solubilized, free pacSph was designed (Fig 6A). […] As a control for specificity of transfer, the lipid binding domain of a mammalian STARD3 (His-STARD3-StART) was used because this protein was previously shown to interact with sphingosine in related work ([51] Preprint), but it is not located inside lysosomes and, therefore, is not expected to interact with the NTD. His-tagged NPC2, His-sfGFP, or His-STARD3-StART were immobilized on NiNTA beads, preloaded with pacSph, and incubated with the NTD. After removal of the beads, the NTD was subjected to UV crosslinking and clicked with a fluorophore, and the resulting lipid–protein complexes were visualized by SDS–PAGE.
Purified His-tagged proteins (5 μM of sfGFP, STARD3, or NPC2) were incubated with 10 μM pacSph in PBS for 60 min at 25°C at 500 rpm (Comfort thermomixer, Eppendorf). Next, the His-tagged proteins were captured on NiNTA beads and washed 5x with PBS to remove unbound pacSph. […] For data analysis, the background was subtracted and the +UV/−UV ratios were quantified for each sample as described previously. […] Statistics were calculated with the Mann–Whitney U test.

NTD of NCR1 [2] = molecular target: T1, NTD of NCR1; assay: Competitive binding assays of edelfosine and NBD-Sph to the NTD
From the text: Edelfosine is a synthetic lysophospholipid with cytotoxic antifungal effects. […] To investigate this, two competitive binding assays with edelfosine and NBD-Sph were designed (Fig 4). For the first assay, the NTD was saturated by NBD-Sph and the addition of edelfosine led to the exchange of the NTD-bound substrate, causing a drop in NBD-Sph fluorescence by about 50% (Fig 4A). […] To further evaluate the capability of NBD-Sph to participate in micelle formation, each emission spectrum was normalized with varying concentrations of edelfosine (Fig 4B). […] The shift in the wavelength of the emission peaks indicates a change in the environment of the fluorophore ([48], [49], [50]), likely indicating the transition of NBD-Sph from being free in solution to being incorporated into mixed micelles with edelfosine. Initially, emission peaks at ∼530 nm are observed, assigned to be NTD and NBD-Sph complexes (Fig 4C). […] Similarly, for binding of substrates at higher concentrations than their CMC, this binding assay is rather complex because of edelfosine exceeding its CMC. […] Because of these restrictions, the inhibitory constant for edelfosine is referred to as apparent, rather than a real, inhibitor constant (KI).
Based on the above observations, fixed amounts of edelfosine were added to NBD-Sph before titrating with the NTD in the second assay (Fig 4D).
For measuring the ability of edelfosine to outcompete NBD-Sph, 1 μM NBD-Sph and 1 μM NTD were mixed to form the interaction complex before adding increasing amounts of edelfosine. As a control, edelfosine was titrated into a cuvette containing exclusively NBD-Sph in buffer. To measure the competitive binding between NBD-Sph and edelfosine, 1 μM NBD-lipid in Tris buffer was mixed with either 0.1, 0.5, or 0.7 μM edelfosine in the sample cuvette before titration with the NTD.
Before determination of dissociation constants, the measurements were normalized. The protein–lipid binding measurements were normalized to the highest intensity in each dataset. For the competition assay, the data were normalized to the lowest intensity in the dataset to be able to fit all data to Equation (1), the full model for one-site binding for the saturated fraction, f ([27]):(1) RL/Rt=Rt+KD+Lt-Rt+KD+Lt^2-4⋅Rt⋅Lt/2⋅Rt=f
To determine the dissociation constant of edelfosine (referred to as KI) in the competition assay, it can be assumed that the binding is simple and that all added ligand is bound. In this case, the IC50 can be used to calculate a KI using Equation (2) on normalized data:(2) KI=IC50⋅KD/KD+L
The KD is the dissociation constant of the ligand, [L] is the concentration, and IC50 is the concentration of the inhibitor, where half of the ligand is inhibited.

[3] = CMC measurement of edelfosine with Sudan Black B absorbance; assay type: physicochemical; details: MES buffer pH 5.5, Sudan Black B absorbance 600 nm, n = 1
Method: As edelfosine is not fluorescent, a different approach was used to measure its CMC. The hydrophobic dye, Sudan Black B, was used to stain micelles. The absorption of solutions consisting of MES buffer, Sudan Black, and increasing concentrations of edelfosine was measured using a spectrophotometer (Hitachi U-2010).
To determine the CMC, the sigmoid curve was fitted and adjusted to the normalized data: f(x)=l/1+e^−k⋅(x−x0)+b (3)
Here, l is the scaling of the y-axis, x0 represents the CMC, k determines the sharpness of the fitted curve, and b is the starting position on the y-axis.

T1 sequence (Q12200 20-249): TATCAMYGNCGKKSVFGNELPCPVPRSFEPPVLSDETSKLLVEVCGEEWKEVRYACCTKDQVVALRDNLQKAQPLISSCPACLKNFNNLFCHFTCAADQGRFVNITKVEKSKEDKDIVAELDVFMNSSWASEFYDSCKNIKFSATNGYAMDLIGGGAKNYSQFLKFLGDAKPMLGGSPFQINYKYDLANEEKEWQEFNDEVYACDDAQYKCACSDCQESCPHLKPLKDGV
T3 sequence (Q12200 20-249): as above

Row | SMILES | +UV/−UV ratio (crosslinking with NTD) (NTD of NCR1 [1]) | +UV/−UV ratio (crosslinking with NPC2) (NPC2; liposomes with 1.5 mol% pac-lipid (1 μM), 1.5 μM NPC2) | transfer of pac-lipid from NPC2 to the NTD (crosslinking with NTD) (NPC2 to the NTD) | IC50 (NTD of NCR1 [2]; 1 μM NBD-Sph mixed with 1 μM NTD, 0 to 4 μM edelfosine, pH 7.5, read-out: IC50 of edelfosine against NBD-Sph binding to the NTD) | drop in NBD-Sph fluorescence on addition of edelfosine (NTD of NCR1 [2]; NTD saturated by NBD-Sph, pH 7.5) | Ki (NTD of NCR1 [2]; calculated from IC50 with Equation (2), apparent, edelfosine exceeds its CMC, read-out: apparent inhibitor constant (KI)) [nM] | critical micelle concentration (CMC) [3] | effect of edelfosine on NPC2 crosslinking with pac-lipids (NPC2; fivefold excess: 1 μM pac-lipid and 5 μM edelfosine in liposomes)
1 | C#CCCCC1(CCCCCCCC/C=C/[C@H](O)[C@H](N)CO)N=N1 [pacSph] | 1.73 | 1.64 | increased crosslinking |  |  |  |  | 
2 | CCCCCCCCCCCCCCCCCCOCC(COP(=O)([O-])OCC[N+](C)(C)C)OC (centres unmarked) [edelfosine] |  |  |  | 480 nM and 500 nM | about 50% | ~50 | 0.7 µM and 0.715 µM | no noticeable inhibition of crosslinking; also recorded: no noticeable effect
